Measurements taken from patent publication US5215983A, “Carbapenem compounds” (Fujisawa Pharmaceutical Co., Ltd., priority 1989, dated 1993).

System: P. aeruginosa 2
Test: in vitro Antimicrobial Activity (two-fold agar-plate dilution method)
Format: cell-based
Details: Pseudomonas aeruginosa, 10^6 viable cells per ml, heart infusion agar, 37° C. for 20 hours, read-out: MIC (minimal inhibitory concentration)
Description: in vitro Antimicrobial Activity was determined by the two-fold agar-plate dilution method as described blow.
One loopful of an overnight culture of a test strain in Trypticase-soy broth (10^6 viable cells per ml) was streaked on heart infusion agar (HI-agar) containing graded concentrations of the test compound, and the minimal inhibitory concentration (MIC) was expressed in terms of μg/ml after incubation at 37° C. for 20 hours.

For `C[C@@H](O)[C@H]1C(=O)N2C(C(=O)O)=C(S[C@@H]3CN[C@H](CN4CCCn5c4cc[n+]5C)C3)[C@H](C)[C@H]12` [Example 1-3, (4R,5S,6S)-6-[(1R)-1-hydroxyethyl]-4-methyl-3-[(2S,4S)-2-{1-methyl-4,5,6,7-tetrahydro-4-pyrazolo[1,5-a]pyrimidinio}methylpyrrolidin-4-yl]thio-7-oxo-1-azabicyclo[3.2.0]-hept-2-ene-2-carboxylic acid chloride], the MIC was 0.39 µg/mL.
